{
  "source": "patent US11629192B2",
  "about": "“Methods and pharmaceutical compositions for the treatment of diseases mediated by the NRP-1/OBR complex signaling pathway” (INSERM (Institut National de la Sante et de la Recherche …, priority 2014, dated 2023)",
  "key": {"[1]": {"tested_on": "MDA-MB-231-shNRP-1 xenografts", "assay": "MDA-MB-231 xenografts in Nude mice", "format": "in vivo", "conditions": "Leptin treatment, KL1 staining", "description": "(§1) First MBA-MB-231 and T47D breast cancer cells line were selected for their high and undetectable NRP-1 expression respectively and the expression of Leptin receptor (OBR). In order to investigate NRP-1 and Leptin association in breast cancer cell line migration, we proceeded to NRP-1 expression silencing in MDA-MB-231 using either siRNA or shRNA approaches or NRP-1 overexpression in T47D. […] In contrast Leptin induced MDA-MB-231 migration that was decreased in siNRP-1 conditions. The in vitro data were confirmed in vivo by MDA-MB-231 and T47D xenografts in Nude mice. Modulation of NRP-1 expression either by shRNA silencing in MDA-MB-231 or by overexpression in T47D induced an increase of proliferation and a decrease of lymph node infiltration by MDA-MB-231-shNRP-1 and a decrease of proliferation and an increase of lymph node infiltration by T47D-NRP-1-RFP in mice treated with Leptin.\nThis need to be more investigated and may be a new strategy for combined anti-Leptin and anti-VEGF therapies in breast cancer. […] In vitro and in vivo data are a direct evidence of NRP-1 and Leptin association in breast cancer cell line migration. This implication of Leptin and NRP-1 are in agreement of published data but with no association between Leptin and NRP-1."}, "[2]": {"tested_on": "OBR and STAT3 phosphorylation", "assay": "OBR and STAT3 phosphorylation in cytoplasmic and nuclear fractions", "format": "cell-based", "conditions": "Leptin stimulation", "description": "Since both NRP-1/OBR complex formation and NRP-1 phosphorylation were abolished by CK2 inhibition, we supposed that OBR signaling pathway could be also affected by CK2 inhibition."}, "[3]": {"tested_on": "MDA-MB-231 and T47D-NRP-1", "assay": "In vitro cell proliferation (MTT, (H3)-thymidine, BrdU incorporation)", "format": "cell-based, human", "conditions": "Leptin stimulation", "description": "as §1\nThis observation can lead to conclude that NRP-1 induces tumor growth independently of Leptin/OBR pathway and that NRP-1/OBR complex signaling is in a favor of cell movement and migration induction. The implication of Leptin in tumor growth and metastasis has already been studied but the published data are contradictory depending on cancer cell type and model studies. […] In our case, in vitro leptin implication in cell growth has been evaluated by different methods. […]"}, "P-NRP-1": {"tested_on": "P-NRP-1", "assay": "NRP-1 (P-NRP-1) and OBR phosphorylation in MDA-MB-231, immunostaining / coimmunoprecipitation", "format": "cell-based, human", "conditions": "MDA-MB-231 serum starved, Leptin (10 nM)", "description": "Beside the modulation of the NRP-1/OBR complex formation by Leptin and OBR phosphorylation, we postulated a possible phosphorylation of NRP-1 that can regulate the translocation of the complex to the nucleus. Two putative phosphorylation sites of NRP-1 have been reported with no more investigation. The first one at the extracellular B domain as reported by Shintani et al in 2009 with no antibody available and the second one at the Threonine 916 located in the cytoplasmic domain as it was reported by Kyle et al in 2011. Since a specific antibody against P-NRP-1 at the T916 was available, we investigated by coimmunoprecipitation the detection of P-NRP-1 in MDA-MB-231 after serum starvation and stimulation by Leptin (10 nM). […] To confirm this phosphorylation state, we investigated the possible implication of a Serine/threonine Kinase CK2 using one of its first chemical inhibitor (DRB). In serum starved condition, P-NRP-1 was detected as polarized spot in the cytoplasm and the nucleus of MDA-MB-231. […] The inhibition was specific since, in stimulated condition combined with DMSO at the same dilution of DRB, we were able to observe a diffuse nuclear P-NRP-1 staining."}, "[4]": {"tested_on": "T47D-NRP-1-RFP xenografts", "assay": "T47D-NRP-1-RFP xenografts in Nude mice", "format": "in vivo", "description": "as §1\nThis need to be more investigated and may be a new strategy for combined anti-Leptin and anti-VEGF therapies in breast cancer. […] In vitro and in vivo data are a direct evidence of NRP-1 and Leptin association in breast cancer cell line migration. This implication of Leptin and NRP-1 are in agreement of published data but with no association between Leptin and NRP-1. […]"}, "[5]": {"tested_on": "T47D-NRP-1-RFP xenografts", "assay": "Transcriptome of T47D-NRP-1-RFP xenografts treated or not with Leptin", "format": "in vivo, Nude mice", "conditions": "Leptin treated vs not treated T47D-NRP-1-RFP xenografts", "description": "Although the Chip-Seq was realized on MDA-MB-231, we opted to realize a transcriptome of T47D overexpressing NRP-1-RFP xenografts compared to T47D-wt and T47D-RFP treated or not with Leptin regarding to the lymph node infiltration induced by the NRP-1 overexpression and its increase by Leptin treatment. To determine any direct association of NRP-1 in gene expression, we realize first a global analysis of transcriptome of T47D-NRP-1 xenografts treated and not treated with Leptin (n=8) compared to T47D-wt and T47D-RFP xenografts treated and not treated with Leptin (n=8). […] The analysis of gene expression in Leptin treated T47D-NRP-1-RFP compared to no treated xenografts, highlighted 66 genes with 31 genes enriched in the Chip-Seq of MDA-MB-231 and that were not detected in T47D-wt and T47D-RFP treated or not with Leptin. Only 4 genes enriched in the Chip-Seq contained peaks associated to transcription factor binding site such as FUS (fused in sarcoma, fold increase 1.79; p=0.045) for Pol2 and C12orf45 (chromosome 12 open reading frame, fold increase 1.29; p=0.03) for CTCF. […] Since Plasminogen Activator Inhibitor 1 (PAI.1) related to SERPINE1 gene has been associated to breast cancer invasion and metastasis, we evaluated PAI.1 expression by immunostaining in T47D-NRP-1-RFP xenografts compared to T47D-wt and T47D-RFP."}},
  "note": "“Also recorded” adds a separate entry of the source.",
  "data": [
    {"substance": "Leptin: small non glycosylated protein, ligand of OBR", "values": [
      {"measurement": "lymph node infiltration by MDA-MB-231-shNRP-1", "setting": "[1]", "value": "did not increase"},
      {"measurement": "OBR and STAT3 phosphorylation", "setting": "[2]", "value": "increase"},
      {"measurement": "cell proliferation", "setting": "[3]", "value": "decreased; also recorded: unable to observe; also recorded: not able to observe a significant increase"},
      {"measurement": "NRP-1 phosphorylation (T916)", "setting": "P-NRP-1", "value": "phosphorylated"},
      {"measurement": "lymph node infiltration by T47D-NRP-1-RFP", "setting": "[4]; Leptin treatment, human KL1 staining", "value": "significantly increased"},
      {"measurement": "tumor growth", "setting": "[4]; T47D overexpressing NRP-1 xenograft treated with Leptin", "value": "tumor growth decrease"},
      {"measurement": "C12orf45 gene expression, fold increase", "setting": "[5]; p=0.03", "value": 1.29, "unit": "fold"},
      {"measurement": "FUS gene expression, fold increase", "setting": "[5]; p=0.045", "value": 1.79, "unit": "fold"}
    ]}
  ]
}
